Source: patent publication US5091523A (priority 1990, dated 1992)
Converted amounts (≈) assume the structure as drawn. Read-outs that look alike come from different tables or passages of the source.

Assays:
MDA-MB-231 cells [1] = assay: Anchorage-dependent colony formation; assay type: cell-based, human
Excerpt: (§1) Since a major use of analogues would be for the treatment of this disease, in vitro screening against human breast cancer cell lines was investigated. Two cell lines were investigated. […] The MCF-7 cell line retains estrogen receptor expression, has an absolute requirement for estrogen to form tumors in nude mice, responds to antiestrogen therapy and is more representative of tumors with a better prognosis.
Consequently, the most accurate methods for determining cell kill measure the ability of a single cell to produce a clone of 50 or more cells (equivalent to six or more divisions). Two clonogenic assays were utilized. The anchorage-dependent assay provides the cells with a solid plastic substrate for attachment. The experiments were preformed as described by van den Berg et al. (1981), supra.

MDA-MB-231 cells [2] = assay: Inhibition of the rate of cell proliferation; assay type: cell-based, human; details: for effect on the rate of cell proliferation / cell population kinetics: MDA-MB-231 (FIG. 3)
Excerpt: as §1
(§2) The interpretation of the effects of cytotoxic drugs on the rate of cell proliferation is a more difficult endpoint to interpret. For example, a cytotoxic agent may apparently reduce the rate of cell growth by killing a proportion of the cells. Alternatively, all the cells in the population may be growth arrested but not killed. Both of these series of events could produce identical growth curves.

[3] = system: human breast cancer cell lines; assay type: cell-based; details: soft agar; for effect on anchorage-independent colony formation / cell survival: two assays (FIG. 5)
Excerpt: as §1
The anchorage-independent assay ensures that the cells grow in suspension in a soft agar solution. Thus, cells must retain both their basal reproductive integrity and their ability to grow in suspension. The data in FIG. 5 represents the results of two anchorage-independent colony formation assays. The assays were performed as described by Clarke et al., J. Endocrinol. 122: 331-340 (1989).

[4] = system: MCF-7 human breast tumor cell line; assay: Inhibition of DNA synthesis ([^3 H] deoxythymidine incorporation), MCF-7; assay type: cell-based; details: for inhibition of DNA synthesis: MCF-7, pharmacologically relevant concentrations (FIG. 2)
Excerpt: as §1
(§3) The cytotoxic effects of Mitomycin-C are largely the result of its interactions with DNA. Consequently, the ability of Mitomycin-C and its analogues to inhibit the rate of incorporation of [^3 H] deoxythymidine into DNA was initially determined. Deoxythymidine is an essential precursor for the synthesis of DNA. The experiments were performed as described by Clarke et al., Br. J. Cancer 51: 365-369 (1985).

[5] = system: human breast cancer cell lines; assay: Conclusion over all four in vitro endpoints; assay type: cell-based
Excerpt: as §1, §3, §2
Consequently, the most accurate methods for determining cell kill measure the ability of a single cell to produce a clone of 50 or more cells (equivalent to six or more divisions). […]

[6] = system: MDA-MB-231 human breast tumor cell line; assay: Inhibition of DNA synthesis ([^3 H] deoxythymidine incorporation), MDA-MB-231; assay type: cell-based; details: for inhibition of DNA synthesis: MDA-MB-231, pharmacologically relevant concentrations (FIG. 1)
Excerpt: as §1, §3

[7] = Host toxicity (preliminary data); assay type: in vivo, mice; details: for mortality: mouse, in vivo, one ip injection, read-out: fatalities
Excerpt: Further, in vivo testing will be performed in two parts. Firstly, the host toxicity of the analogues in comparison with the parent drug will be tested. The concentration required to kill approximately 10% of a population of mice will then be determined. Histopathological analysis will determine the effect of drug treatment on tissues and organs. Analysis of white blood cell counts will provide information on hematopoietic toxicity. […] 80% and 100% fatalities were observed following one intraperitoneal injection of 30 and 40 mg/kg MC-77 respectively.

P388 leukemia [8] = assay: Murine P388 leukemia antitumor activity (Example 14, Table 5); assay type: in vivo, murine (CD2F1 male mice)
Excerpt: T is the mean survival days of mice receiving drug=treated mice
C is the mean survival days of the mice receiving drug vehicle.

bone marrow = details: preclinical and clinical studies; cited from earlier work
P388 leukemia [9] = details: cited from earlier work
[10] = system: Gram-negative strain of bacteria (HB101); assay: Antibacterial activity, agar dilution M.I.C. (Example 12, Table 4); assay type: cell-based; details: read-out: M.I.C. Gram-negative Bacteria
Procedure: Minimum inhibition concentration (M.I.C.) against a Gram-negative strain of bacteria (HB101) was estimated by the dilution method, with graded concentrations of drug added to agar at 37°-40° C. […] The agar, containing drug, quickly solidified at room temperature, and the bacteria were plated immediately.

metastatic breast cancer = details: cited from earlier work
[11] = system: murine and human neoplasms; details: preclinical and clinical studies; cited from earlier work
P388 leukemia [12] = assay: Murine P388 leukemia antitumor activity (Example 11, Table 2); assay type: in vivo, murine (CD2F1 male mice); details: for % ILS (percentage increased life span): Day 1, P388 leukemia; for Mean Survival: control 10.0
Procedure: The murine P388 leukemia system, maintained intraperitoneally in female DBA/2 mice, was used to evaluate antitumor activity.
The P388 antileukemic activity of the test compound was assessed by mean survival days and percentage increased life span (ILS). The % ILS was calculated as follows: […]
where T is the mean survival days of the treated mice and C is the mean survival days of the untreated mice.

[13] = system: peripheral leukocyte (WBC); assay: In vivo murine WBC depression / bone marrow toxicity (Table 3); parameters: species or system normal CD2F1 male mice
Procedure: Blood samples obtained were diluted in 9.98 ml of Isoton (a neutral, isotonic buffer solution) and counted in a Coulter counter after lysis with Zapoglobin (an enzyme solution which lyses red blood cells, but not white blood cells). WBC counts are expressed as a percentage of values from control mice receiving drug vehicle only.

[14] = Weight loss resultant from drug toxicity (Example 14, Table 5)
Procedure: Each compound was administered intraperitoneally to groups of CD2F1 male mice on Day 1 following intraperitoneal implantation of 1×10^6 P388 leukemia cells.
Weight loss resultant from drug toxicity was also determined.

## CO[C@@]12[C@H](COC(N)=O)C3=C(C(=O)C(C)=C(NCCCC(=O)N[C@@H]4O[C@H](COC(C)=O)[C@@H](OC(C)=O)[C@H](OC(C)=O)[C@H]4NC(C)=O)C3=O)N1C[C@@H]1N[C@@H]12 [MC-62, 7-{3-[(2-acetamido-3,4,6-tri-O-acetyl-β-D-glucopyranosyl)-amino]carbonylpropylamino}-9-methoxymitosane]
MDA-MB-231 cells [1]; MDA-MB-231 (FIG. 4)
  effect on anchorage-dependent colony formation: did not significantly influence colony formation
MDA-MB-231 cells [2]
  effect on the rate of cell proliferation / cell population kinetics: failed to markedly influence the rate of MDA-MB-231 growth
[3]
  effect on anchorage-independent colony formation / cell survival: consistently fails to influence colony formation
[4]; MCF-7
  potency in inhibition of DNA synthesis relative to Mitomycin-C and MC-77: significantly less potent than both Mitomycin-C and MC-77
[5]
  antineoplastic potential (all four endpoints): significantly reduced antineoplastic potential
[6]; MDA-MB-231
  potency in inhibition of DNA synthesis relative to Mitomycin-C and MC-77: significantly less potent than both Mitomycin-C and MC-77

## CO[C@@]12[C@H](COC(N)=O)C3=C(C(=O)C(C)=C(Nc4ccc(O[C@@H]5O[C@H](COC(C)=O)[C@@H](OC(C)=O)[C@H](OC(C)=O)[C@H]5OC(C)=O)cc4)C3=O)N1C[C@@H]1N[C@@H]12 [MC-77, 7-{[4-(2,3,4,6-tetra-O-acetyl-β-D-glucopyranosyl)oxyphenyl]amino}-9-methoxymitosane]
MDA-MB-231 cells [1]; MDA-MB-231, 0.25 uM
  reduction in anchorage-dependent colony forming ability: significant reduction in colony forming ability
MDA-MB-231 cells [1]; MDA-MB-231, 0.25 uM, vs equimolar Mitomycin-C, estimated
  inhibition of anchorage-dependent colony formation compared with Mitomycin-C: approximately two to five fold greater
MDA-MB-231 cells [2]
  effect on the rate of cell proliferation / cell population kinetics: significantly inhibited the rate of cell proliferation
MDA-MB-231 cells [2]; MDA-MB-231, 1.5 uM
  cell number relative to starting cell number: reduced cell number below starting cell number
[3]
  effect on anchorage-independent colony formation / cell survival: dose dependent reductions in cell survival
[3]; vs Mitomycin-C
  cytotoxicity in anchorage-independent assay compared with Mitomycin-C: two to five fold more cytotoxic
[4]; MCF-7, equimolar concentrations, vs Mitomycin-C
  inhibition of DNA synthesis compared with the parent compound: two to five fold greater inhibition of DNA synthesis
[4]
  inhibition of DNA synthesis: significant and dose dependent inhibition of DNA synthesis
[5]; vs Mitomycin-C
  cytotoxic potential compared with the parent drug (all four endpoints): marked improvement in the cytotoxic potential of between two and five fold
[6]; MDA-MB-231, equimolar concentrations, vs Mitomycin-C
  inhibition of DNA synthesis compared with the parent compound: two to five fold greater inhibition of DNA synthesis
[6]
  inhibition of DNA synthesis: significant and dose dependent inhibition of DNA synthesis
[7]; inconclusive preliminary data, vs Mitomycin-C
  fold less toxic than the parent drug: up to two fold less toxic than the parent drug
[7]; 30 mg/kg, preliminary, one experiment
  mortality: 80%
[7]; 40 mg/kg, preliminary, one experiment
  mortality: 100%
[7]; preliminary
  toxicity compared with Mitomycin-C: no more toxic when compared with Mitomycin-C
[7]; preliminary, one experiment
  dose response curve for toxicity: retained the steep dose response curve for toxicity

## CO[C@@]12[C@H](COC(N)=O)C3=C(C(=O)C(C)=C(N)C3=O)N1C[C@@H]1N[C@@H]12 [Mitomycin C, mitomycin C, reference compound]
P388 leukemia [8]; 5 mg/kg ip
  % ILS: 83
MDA-MB-231 cells [1]; MDA-MB-231, 0.25 uM
  reduction in anchorage-dependent colony forming ability: significant reduction in colony forming ability
MDA-MB-231 cells [2]
  effect on the rate of cell proliferation / cell population kinetics: significantly inhibited the rate of cell proliferation
Bone marrow
  bone marrow toxicity: severe, delayed bone marrow toxicity
[3]
  effect on anchorage-independent colony formation / cell survival: dose dependent reductions in cell survival
[4]
  inhibition of DNA synthesis: significant and dose dependent inhibition of DNA synthesis
P388 leukemia [9]
  optimal single ip P388 therapeutic dose: 4.5 to 5.5 mg/kg
[6]
  inhibition of DNA synthesis: significant and dose dependent inhibition of DNA synthesis
[10]; HB101, agar, 24 hours at 37° C.
  MIC: 0.3 to 0.5 µg/mL (≈ 0.897 to 1.5 µM)
Metastatic breast cancer
  objective responses in patients: significant percentage of objective responses
[11]
  activity against murine and human neoplasms: activity against a variety of murine and human neoplasms

## CO[C@@]12[C@H](COC(N)=O)C3=C(C(=O)C(C)=C(N[C@H]4C(O)O[C@H](CO)[C@@H](O)[C@@H]4O)C3=O)N1C[C@@H]1N[C@@H]12 (some centres unmarked) [N^7-(2-deoxyglucopyranosyl)mitomycin C]
P388 leukemia [12]; 5 mg/kg ip
  % ILS (percentage increased life span): 42%
  Mean Survival: 14.2 days
P388 leukemia [12]; 13.5 mg/kg ip
  % ILS (percentage increased life span): 61%
  Mean Survival: 16.1 days
P388 leukemia [12]; summary
  activity against the murine P388 tumor system: significant activity against the murine P388 tumor system
[10]; 24 h
  MIC: 1.66 to 3.3 µg/mL (≈ 3.34 to 6.65 µM)
[13]; 13.5 mg/kg ip, normal CD2F1 male mice, Day 3
  WBC Count on Day 3 (as percent of control): 94%
[13]; summary, at active doses
  bone marrow toxicity as determined by depression of peripheral leukocyte (WBC) count: no significant bone marrow toxicity

## CO[C@@]12[C@H](COC(N)=O)C3=C(C(=O)C(C)=C(Nc4ccc(OP(=O)(O)O)cc4)C3=O)N1C[C@@H]1N[C@@H]12 [N^7-(4-phosphatophenyl)mitomycin C]
P388 leukemia [8]; 15 mg/kg ip
  % ILS: 84
P388 leukemia [8]; 30 mg/kg ip
  30-day survivor: 1/5
  % ILS: > 150
[14]; 15 mg/kg ip
  weight loss: No weight loss
[14]; 30 mg/kg ip
  Average weight loss: 8%
[14]; 45 mg/kg ip, by Day 6 post-drug injection
  body weight decrease for all mice: 20-24%
